Where two headings read alike, the source gives them in different places.

Here are results for 26 compounds from patent US11566002B2, “Substituted tetrahydrocyclopenta[C]pyrroles, substituted dihydropyrrolizines, analogues thereof, and methods using same” (priority 2018, dated 2023).

In the experiment the test system is HBV rcDNA. Briefly: HepDE19 assay with bDNA quantitation of HBV rcDNA. It counts as cell-based, hepatitis B virus. In short, it runs like this: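 Cytotoxicity (CC50) measured by CellTiter-Glo ATP content in parallel plates, 5,000 cells/well, 4 days. Antiviral EC50 and EC90 derived from HBV rcDNA bDNA levels after 7-day compound exposure (top 25 μM, ½-log 8-point, 0.5% DMSO) of Tet-withdrawn HepDE19 cells at 50,000/well, as % inhibition versus untreated.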

The mark [1] stands for this setting: read-out: DE-19 bDNA EC50, HepDE19 cells, Tet-free medium, 7 day-incubation, rcDNA measured by Quantigene 2.0 bDNA assay, top concentration 25 μM.
The mark [2] stands for this setting: HepDE19 cells, Tet-free medium, 7 day-incubation, rcDNA measured by Quantigene 2.0 bDNA assay, top concentration 25 μM, read-out: DE-19 bDNA EC50.

For `Cn1cnc(COC(=O)NC2CCc3c2c(-c2ccccc2)n(C)c3C(=O)Nc2ccc(F)c(Cl)c2)n1` (single isomer, unassigned) [Compound 109, (1-Methyl-1H-1,2,4-triazol-3-yl)methyl (1-((3-chloro-4-fluorophenyl)carbamoyl)-2-methyl-3-phenyl-2,4,5,6-tetrahydrocyclopenta[c]pyrrol-4-yl)carbamate], the EC50 under setting [1] turned out to be 24 µM.

Take `CC#CCOC(=O)NC1CCc2c1cn(C)c2C(=O)Nc1ccc(F)c(Cl)c1` (single isomer, unassigned) [Compound 110, But-2-yn-1-yl (1-((3-chloro-4-fluorophenyl)carbamoyl)-2-methyl-2,4,5,6-tetrahydrocyclopenta[c]pyrrol-4-yl)carbamate]: the EC50 under setting [1] was 1.5 µM.

On to `CC#CCOC(=O)NC1CCc2c1cn(C)c2C(=O)Nc1ccc(F)c(Cl)c1` (single isomer, unassigned) [Compound 111, But-2-yn-1-yl (1-((3-chloro-4-fluorophenyl)carbamoyl)-2-methyl-2,4,5,6-tetrahydrocyclopenta[c]pyrrol-4-yl)carbamate], for which the EC50 under setting [1] came out at 0.06 µM.

With `CCC#CCOC(=O)NC1CCc2c1cn(C)c2C(=O)Nc1ccc(F)c(Cl)c1` (single isomer, unassigned) [Compound 112, Pent-2-yn-1-yl(1-((3-chloro-4-fluorophenyl)carbamoyl)-2-methyl-2,4,5,6-tetrahydrocyclopenta[c]pyrrol-4-yl)carbamate], the EC50 under setting [1] came out at 5.7 µM.

On to `CCC#CCOC(=O)NC1CCc2c1cn(C)c2C(=O)Nc1ccc(F)c(Cl)c1` (single isomer, unassigned) [Compound 113, Pent-2-yn-1-yl(1-((3-chloro-4-fluorophenyl)carbamoyl)-2-methyl-2,4,5,6-tetrahydrocyclopenta[c]pyrrol-4-yl)carbamate], for which, under setting [1], the EC50 was determined as 0.12 µM.

`Cn1cc2c(c1C(=O)Nc1ccc(F)c(Cl)c1)CCC2NC(=O)OCC#CC1CC1` (single isomer, unassigned) [Compound 114, 3-Cyclopropylprop-2-yn-1-yl (1-((3-chloro-4-fluorophenyl)carbamoyl)-2-methyl-2,4,5,6-tetrahydrocyclopenta[c]pyrrol-4-yl)carbamate]: the EC50 under setting [2] is 0.47 µM.

In the case of `Cn1cc2c(c1C(=O)Nc1ccc(F)c(Cl)c1)CCC2NC(=O)OCC#CC1CC1` (single isomer, unassigned) [Compound 115, 3-Cyclopropylprop-2-yn-1-yl (1-((3-chloro-4-fluorophenyl)carbamoyl)-2-methyl-2,4,5,6-tetrahydrocyclopenta[c]pyrrol-4-yl)carbamate], under setting [2], the EC50 worked out at 5.4 µM.

Take `Cn1cc(COC(=O)NC2CCc3c2cn(C)c3C(=O)Nc2ccc(F)c(Cl)c2)nn1` (single isomer, unassigned) [Compound 116, (1-Methyl-1H-1,2,3-triazol-4-yl)methyl (1-((3-chloro-4-fluorophenyl)carbamoyl)-2-methyl-2,4,5,6-tetrahydrocyclopenta[c]pyrrol-4-yl)carbamate]: the EC50 under setting [2] is 0.05 µM.

Turning to `Cn1cc(COC(=O)NC2CCc3c2cn(C)c3C(=O)Nc2ccc(F)c(Cl)c2)nn1` (single isomer, unassigned) [Compound 117, (1-Methyl-1H-1,2,3-triazol-4-yl)methyl (1-((3-chloro-4-fluorophenyl)carbamoyl)-2-methyl-2,4,5,6-tetrahydrocyclopenta[c]pyrrol-4-yl)carbamate], the EC50 under setting [2] was found to be 6.1 µM.

For the compound `Cn1cc2c(c1C(=O)Nc1ccc(F)c(Cl)c1)CCC2NC(=O)OC[C@@H]1CCC(=O)N1` (single isomer, unassigned) [Compound 118], under setting [2], the EC50 was 0.16 µM.

As for `Cn1cc2c(c1C(=O)Nc1ccc(F)c(Cl)c1)CCC2NC(=O)OC[C@@H]1CCC(=O)N1` (single isomer, unassigned) [Compound 119], the EC50 under setting [2] worked out at 1.9 µM.

Take `Cn1cc2c(c1C(=O)Nc1ccc(F)c(Cl)c1)CCC2NC(=O)OC[C@H]1CCC(=O)N1` (single isomer, unassigned) [Compound 120]: under setting [2], the EC50 was 0.21 µM.

On to `Cn1cc2c(c1C(=O)Nc1ccc(F)c(Cl)c1)CCC2NC(=O)OC[C@H]1CCC(=O)N1` (single isomer, unassigned) [Compound 121], for which the EC50 under setting [2] worked out at 4 µM.

`Cn1c(Br)c2c(c1C(=O)Nc1ccc(F)c(Cl)c1)CCC2NC(=O)OCc1nc[nH]n1` (single isomer, unassigned) [Compound 125, (1H-1,2,4-Triazol-3-yl)methyl(3-bromo-1-((3-chloro-4-fluorophenyl)carbamoyl)-2-methyl-2,4,5,6-tetrahydrocyclopenta[c]pyrrol-4-yl)carbamate]: for the setting “Hepatitis B virus, HepDE19, 168 h, read-out: DE-19 bDNA EC50 (μM), HepDE19 cells, Tet-free medium, 7 day-incubation, rcDNA measured by Quantigene 2.0 bDNA assay, top concentration 25 μM”, the EC50 is 0.04 µM.

`Cn1c(C(=O)Nc2ccc(F)c(Cl)c2)c2c(c1C(F)(F)F)C(NC(=O)OCc1nc[nH]n1)CC2` (single isomer, unassigned) [Compound 126, (1H-1,2,4-Triazol-3-yl)methyl (1-((3-chloro-4-fluorophenyl)carbamoyl)-2-methyl-3-(trifluoromethyl)-2,4,5,6-tetrahydrocyclopenta[c]pyrrol-4-yl)carbamate]: under setting [2], the EC50 was 8.7 µM.

Turning to `Cn1c(C(=O)Nc2ccc(F)c(Cl)c2)c2c(c1C(F)(F)F)C(NC(=O)OCc1nc[nH]n1)CC2` (single isomer, unassigned) [Compound 127, (1H-1,2,4-Triazol-3-yl)methyl (1-((3-chloro-4-fluorophenyl)carbamoyl)-2-methyl-3-(trifluoromethyl)-2,4,5,6-tetrahydrocyclopenta[c]pyrrol-4-yl)carbamate], the EC50 under setting [2] is 0.44 µM.

As for `Cn1ncc(COC(=O)NC2CCc3c2cn(C)c3C(=O)Nc2ccc(F)c(Cl)c2)n1` (single isomer, unassigned) [Compound 128, (2-Methyl-2H-1,2,3-triazol-4-yl)methyl (1-((3-chloro-4-fluorophenyl)carbamoyl)-2-methyl-2,4,5,6-tetrahydrocyclopenta[c]pyrrol-4-yl)carbamate], the EC50 under setting [2] turned out to be 1.7 µM.

As to `Cn1ncc(COC(=O)NC2CCc3c2cn(C)c3C(=O)Nc2ccc(F)c(Cl)c2)n1` (single isomer, unassigned) [Compound 129, (2-Methyl-2H-1,2,3-triazol-4-yl)methyl (1-((3-chloro-4-fluorophenyl)carbamoyl)-2-methyl-2,4,5,6-tetrahydrocyclopenta[c]pyrrol-4-yl)carbamate], under setting [2], the EC50 was found to be 0.04 µM.

As for `Cc1c2c(c(C(=O)Nc3ccc(F)c(Cl)c3)n1C)CCC2NC(=O)OCc1c[nH]nn1` (single isomer, unassigned) [Compound 130, (1H-1,2,3-Triazol-4-yl)methyl (1-((3-chloro-4-fluorophenyl)carbamoyl)-2,3-dimethyl-2,4,5,6-tetrahydrocyclopenta[c]pyrrol-4-yl)carbamate], the EC50 under setting [2] stood at 9 µM.

`Cc1c2c(c(C(=O)Nc3ccc(F)c(Cl)c3)n1C)CCC2NC(=O)OCc1c[nH]nn1` (single isomer, unassigned) [Compound 131, (1H-1,2,3-Triazol-4-yl)methyl (1-((3-chloro-4-fluorophenyl)carbamoyl)-2,3-dimethyl-2,4,5,6-tetrahydrocyclopenta[c]pyrrol-4-yl)carbamate]: the EC50 under setting [2] was determined as 1.7 µM.

For the compound `Cn1c(C(=O)Nc2ccc(F)c(Cl)c2)c2c(c1C(F)(F)F)C(NC(=O)OCc1cn[nH]n1)CC2` (single isomer, unassigned) [Compound 132, (2H-1,2,3-Triazol-4-yl)methyl (1-((3-chloro-4-fluorophenyl)carbamoyl)-2-methyl-3-(trifluoromethyl)-2,4,5,6-tetrahydrocyclopenta[c]pyrrol-4-yl)carbamate], under setting [2], the EC50 was 13 µM.

For `Cn1c(C(=O)Nc2ccc(F)c(Cl)c2)c2c(c1C(F)(F)F)C(NC(=O)OCc1cn[nH]n1)CC2` (single isomer, unassigned) [Compound 133, (2H-1,2,3-Triazol-4-yl)methyl (1-((3-chloro-4-fluorophenyl)carbamoyl)-2-methyl-3-(trifluoromethyl)-2,4,5,6-tetrahydrocyclopenta[c]pyrrol-4-yl)carbamate], under setting [2], the EC50 is 0.43 µM.

Take `Cn1c(Cl)c2c(c1C(=O)Nc1ccc(F)c(Cl)c1)CCCC2NC(=O)OCc1nc[nH]n1` (single isomer, unassigned) [Compound 134, (1H-1,2,4-Triazol-3-yl)methyl (3-chloro-1-((3-chloro-4-fluorophenyl)carbamoyl)-2-methyl-4,5,6,7-tetrahydro-2H-isoindol-4-yl)carbamate]: the EC50 under setting [2] was found to be 1.9 µM.

With `Cn1c(Cl)c2c(c1C(=O)Nc1ccc(F)c(Cl)c1)CCCC2NC(=O)OCc1nc[nH]n1` (single isomer, unassigned) [Compound 135, (1H-1,2,4-Triazol-3-yl)methyl (3-chloro-1-((3-chloro-4-fluorophenyl)carbamoyl)-2-methyl-4,5,6,7-tetrahydro-2H-isoindol-4-yl)carbamate], the EC50 under setting [2] amounted to 0.18 µM.

In the case of `Cn1c(Cl)c2c(c1C(=O)Nc1ccc(F)c(Cl)c1)CCCC2NC(=O)OCc1cn[nH]n1` (single isomer, unassigned) [Compound 136, (2H-1,2,3-Triazol-4-yl)methyl (3-chloro-1-((3-chloro-4-fluorophenyl)carbamoyl)-2-methyl-4,5,6,7-tetrahydro-2H-isoindol-4-yl)carbamate], the EC50 under setting [2] amounted to 1.2 µM.

With `Cn1c(Cl)c2c(c1C(=O)Nc1ccc(F)c(Cl)c1)CCCC2NC(=O)OCc1cn[nH]n1` (single isomer, unassigned) [Compound 137, (2H-1,2,3-Triazol-4-yl)methyl (3-chloro-1-((3-chloro-4-fluorophenyl)carbamoyl)-2-methyl-4,5,6,7-tetrahydro-2H-isoindol-4-yl)carbamate], the EC50 under setting [2] was found to be 0.16 µM.
